Measured values: PMC6009902, “1-(Benzo[d]thiazol-2-yl)-3-phenylureas as dual inhibitors of casein kinase 1 and ABAD enzymes for treatment of neurodegenerative disorders” (Journal of Enzyme Inhibition and Medicinal Chemistry, 2018)
Several values for one entry are separate records, joined by “and”; a condition that tells them apart may be missing. Identical values can stand only once.

Experiments:
CK1δ = system: CK1δ; design: method as in PMID 20577972; conditions: standards; cited from earlier work
[1] = biological target: T1, Human recombinant Casein Kinase 1 delta (CK1δ) (Homo sapiens, UniProt P48730); assay: CK-1δ Kinase-Glo assay; format: biochemical; conditions: for IC50: human recombinant enzyme, mean of two independent experiments, read-out: IC50 CK1δ (µM ± SD); for CK1δ inhibition (value in parentheses): screening at fixed concentration of 10 µM
T1 construct: purchased Millipore (Millipore Iberica S.A.U.)
T1 sequence (P48730 whole entry): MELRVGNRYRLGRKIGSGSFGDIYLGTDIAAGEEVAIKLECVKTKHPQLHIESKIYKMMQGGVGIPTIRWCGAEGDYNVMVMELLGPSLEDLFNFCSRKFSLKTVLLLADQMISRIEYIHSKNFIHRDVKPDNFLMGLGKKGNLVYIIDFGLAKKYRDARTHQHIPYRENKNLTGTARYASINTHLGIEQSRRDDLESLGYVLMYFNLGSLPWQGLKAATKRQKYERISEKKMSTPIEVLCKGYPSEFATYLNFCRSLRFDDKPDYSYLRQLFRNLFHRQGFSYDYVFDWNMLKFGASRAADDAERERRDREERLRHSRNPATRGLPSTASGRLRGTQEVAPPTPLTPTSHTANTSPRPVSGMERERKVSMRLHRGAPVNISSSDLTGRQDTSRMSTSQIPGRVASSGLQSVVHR
Procedure: (§1) The Kinase-Glo Kit was purchased from Promega (Promega Biotech Ibérica, SL) and was used to screen compounds for activity against CK-1δ and CK1ε. Human recombinant Casein Kinase 1 delta and epsilon was purchased from Millipore (Millipore Iberica S.A.U.). Casein solution from bovine milk, 5%, was purchased from Sigma-Aldrich (St. Louis, MO, USA). ATP and all other reagents were from Sigma-Aldrich (St. Louis, MO, USA). Kinase-Glo assays were performed in assay buffer using black 96-well plates. In a typical assay, 10 µL of test compound (dissolved in DMSO at 1 mM concentration and diluted in advance in assay buffer to the desired concentration) 10 µL (16 ng) of enzyme were added to each well followed by 20 µL of assay buffer containing 0.1% casein as substrate and 4 µM ATP. […] After 60 min incubation at 30 °C the enzymatic reaction was stopped with 40 µL of Kinase-Glo reagent. Glow-type luminescence was recorded after 10 min using a FLUOstar Optima (BMG Labtechnologies GmbH, Offenburg, Germany) multimode reader. The activity is proportional to the difference of the total and consumed ATP. The inhibitory activities were calculated on the basis of maximal activities measured in the absence of inhibitor. […] Each value is the mean of two independent experiments.
Compounds were screened against human recombinant enzyme CK1δ at a fixed concentration of 10 µM.

[2] = biological target: T2, Human recombinant Casein Kinase 1 epsilon (CK1ε) (Homo sapiens, UniProt P49674); assay: CK-1ε Kinase-Glo assay; format: biochemical; conditions: for IC50: human recombinant enzyme, mean of two independent experiments, read-out: IC50 CK1ε (µM ± SD)
T2 construct: purchased Millipore (Millipore Iberica S.A.U.)
T2 sequence (P49674 whole entry): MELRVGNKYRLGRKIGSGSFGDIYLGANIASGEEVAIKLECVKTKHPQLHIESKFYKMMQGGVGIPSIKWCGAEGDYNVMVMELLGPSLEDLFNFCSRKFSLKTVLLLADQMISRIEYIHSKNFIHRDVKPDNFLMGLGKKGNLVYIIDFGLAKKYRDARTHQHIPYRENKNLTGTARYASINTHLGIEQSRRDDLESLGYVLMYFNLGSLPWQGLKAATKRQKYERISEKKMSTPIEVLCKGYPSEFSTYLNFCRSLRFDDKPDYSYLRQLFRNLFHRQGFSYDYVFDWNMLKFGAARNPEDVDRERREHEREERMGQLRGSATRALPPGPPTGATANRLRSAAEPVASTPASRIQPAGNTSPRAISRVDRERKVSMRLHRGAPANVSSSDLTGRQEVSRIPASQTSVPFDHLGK
Procedure: as §1, with “experiments. […]” for “experiments.”

PAMPA-BBB assay = conditions: for Pe (10^−6 cm s^−1): 2.5 h
Procedure: Prediction of the BBB penetration was evaluated using a parallel artificial membrane permeability assay (PAMPA) using the setup according to Di et al.[12]. Ten commercial drugs, phosphate buffer saline solution at pH 7.4 (PBS), Ethanol and dodecane were purchased from Sigma, Acros organics, Merck, Aldrich and Fluka. […] Filter PDVF membrane units (diameter 30 mm, pore size 0.45 µm) from Symta were used to filtered the samples. A 96-well plate UV reader (Thermo Scientific, Multiskan spectrum) was used for the UV measurements. […] About 100 µL of this compound stock solution was taken and […] of EtOH and 3500 µL of PBS pH = 7.4 buffer were added to reach 30% of EtOH concentration in the experiment. These solutions were filtered. The acceptor 96-well microplate was filled with 180 µL of PBS/EtOH (70/30). The donor 96-well plate was coated with 4 µL of porcine brain lipid in dodecane (20 mg mL^−1) and after 5 min, 180 µL of each compound solution was added. About 1–2 mg of every compound to be determined their ability to pass the brain barrier were dissolved in 1500 µL of EtOH and 3500 µL of PBS pH = 7.4 buffer, filtered and then added to the donor 96-well plate. Then the donor plate was carefully put on the acceptor plate to form a “sandwich”, which was left undisturbed for 2 h and 30 min at 25 °C. During this time the compounds diffused from the donor plate through the brain lipid membrane into the acceptor plate. After incubation, the donor plate was removed. UV plate reader determined the concentration of compounds and commercial drugs in the acceptor and the donor wells. Every sample was analysed at three to five wavelengths, in three wells and in two independent runs. […] 10 quality control compounds (previously mentioned) of known BBB permeability were included in each experiment to validate the analysis set.
Parallel Artificial Membrane Permeability Assay (PAMPA) is technique developed to predict passive permeability through biological membranes. […] An assay validation was made comparing the reported permeability values of commercial drugs with the experimental data obtained employing this methodology.

[3] = biological target: amyloid-beta binding alcohol dehydrogenase (ABAD); design: method as in PMID 27287370; conditions: cited from earlier work
CK1ε = system: CK1ε; design: method as in PMID 20577972; conditions: standards; cited from earlier work

## O=C(Nc1ccc(O)cc1)Nc1nc2ccc(F)cc2s1 [Compound K684]
[1]
  IC50: 1.37 ± 0.23 µM

## O=C(Nc1ccc(O)cc1)Nc1nc2ccc(Cl)cc2s1 [Compound K685]
[1]
  SI (Selectivity index = IC50CK1ε/IC50CK1δ): 15.3
  IC50: 0.59 ± 0.06 µM
[2]
  IC50: 9.01 ± 0.37 µM

## O=C(Nc1cccc(O)c1)Nc1nc2ccc(F)cc2s1 [Compound K686]
[1]
  SI (Selectivity index = IC50CK1ε/IC50CK1δ): 4.7
  IC50: 0.86 ± 0.1 µM
[2]
  IC50: 4.02 ± 0.16 µM

## O=C(Nc1cccc(O)c1)Nc1nc2ccc(Cl)cc2s1 [Compound K687]
[1]
  SI (Selectivity index = IC50CK1ε/IC50CK1δ): 12.0
[2]
  IC50: ~2 µM and 1.92 µM

## O=C(Nc1nc2ccc(F)cc2s1)Nc1ccccc1O [Compound K688]
[1]
  SI (Selectivity index = IC50CK1ε/IC50CK1δ): 8.1
  IC50: 0.9 ± 0.14 µM
[2]
  IC50: 7.33 ± 0.29 µM

## O=C(Nc1nc2ccc(Cl)cc2s1)Nc1ccccc1O [Compound K689]
[1]
  SI (Selectivity index = IC50CK1ε/IC50CK1δ): 8.1
  IC50: < 0.5 µM and 0.48 µM
[2]
  IC50: 3.91 ± 0.4 µM

## O=C(Nc1ccc(O)c(Cl)c1)Nc1nc2ccc(F)cc2s1 [Compound K690]
[1]
  SI (Selectivity index = IC50CK1ε/IC50CK1δ): 12.0
  IC50: 0.84 ± 0.16 µM
PAMPA-BBB assay
  ability to cross the BBB (in words): able to cross the BBB by passive permeation
PAMPA-BBB assay; pig, pH 7.4
  Pe (10^−6 cm s^−1): 13.2 ± 1.4 10^−6 cm s^−1
[2]
  IC50: 10.1 ± 0.74 µM
[3]
  IC50: 1.89 µM

## O=C(Nc1ccc(O)c(Cl)c1)Nc1nc2ccc(Cl)cc2s1 [Compound K691]
[1]
  SI (Selectivity index = IC50CK1ε/IC50CK1δ): 4.1
  IC50: 0.73 ± 0.21 µM
PAMPA-BBB assay
  ability to cross the BBB (in words): able to cross the BBB by passive permeation
PAMPA-BBB assay; pig, pH 7.4
  Pe (10^−6 cm s^−1): 14 ± 2 10^−6 cm s^−1
[2]
  IC50: 3.01 ± 0.33 µM
[3]
  IC50: 1.67 µM

## O=C(Nc1ccc(O)c(C(=O)O)c1)Nc1nc2ccc(F)cc2s1 [Compound K692]
[1]
  SI (Selectivity index = IC50CK1ε/IC50CK1δ): 9.2
  IC50: 0.91 ± 0.31 µM
[2]
  IC50: 8.41 ± 0.71 µM

## O=C(Nc1ccc(O)c(C(=O)O)c1)Nc1nc2ccc(Cl)cc2s1 [Compound K693]
[1]
  SI (Selectivity index = IC50CK1ε/IC50CK1δ): 5.7
  IC50: < 0.5 µM and 0.4 µM
[2]
  IC50: ~2 µM and 2.29 µM

## COc1ccc(NC(=O)Nc2nc3ccc(F)cc3s2)cc1 [Compound K694]
[1]
  IC50: 7.38 ± 0.93 µM

## COc1ccc(NC(=O)Nc2nc3ccc(Cl)cc3s2)cc1 [Compound K695]
[1]
  IC50: 8.87 ± 0.73 µM

## COc1ccc(NC(=O)Nc2nc3ccc(F)cc3s2)cc1OC [Compound K696]
[1]
  IC50: > 10 µM
  CK1δ inhibition (value in parentheses): 23%

## COc1ccc(NC(=O)Nc2nc3ccc(Cl)cc3s2)cc1OC [Compound K697]
[1]
  SI (Selectivity index = IC50CK1ε/IC50CK1δ): >14.5
  IC50: 0.69 ± 0.19 µM
[2]
  IC50: > 10 µM
[2]; printed beside IC50 >10 µM
  CK1ε inhibition (value in parentheses): 26%

## COc1ccc(NC(=O)Nc2nc3ccc(F)cc3s2)cc1C(=O)O [Compound K698]
[1]
  IC50: 3.37 ± 0.4 µM

## COc1ccc(NC(=O)Nc2nc3ccc(Cl)cc3s2)cc1C(=O)O [Compound K699]
[1]
  SI (Selectivity index = IC50CK1ε/IC50CK1δ): 7.6
  IC50: < 0.5 µM and 0.46 µM
[2]
  IC50: 3.49 ± 0.09 µM

## O=C(Nc1ccc(Oc2ccccc2)cc1)Nc1nc2ccc(F)cc2s1 [Compound K700]
[1]
  IC50: > 10 µM
  CK1δ inhibition (value in parentheses): 36%

## O=C(Nc1ccc(Oc2ccccc2)cc1)Nc1nc2ccc(Cl)cc2s1 [Compound K701]
[1]
  IC50: > 10 µM
  CK1δ inhibition (value in parentheses): 37%

## O=C(Nc1ccc(C(=O)O)cc1)Nc1nc2ccc(F)cc2s1 [Compound K702]
[1]
  IC50: 2.99 ± 0.36 µM

## O=C(Nc1ccc(C(=O)O)cc1)Nc1nc2ccc(Cl)cc2s1 [Compound K703]
[1]
  SI (Selectivity index = IC50CK1ε/IC50CK1δ): 12.3
  IC50: < 0.5 µM and 0.3 µM
[2]
  IC50: 3.69 ± 0.41 µM

## CCOC(=O)c1ccc(NC(=O)Nc2nc3ccc(F)cc3s2)cc1 [Compound K704]
[1]
  IC50: > 10 µM
  CK1δ inhibition (value in parentheses): 31%

## CCOC(=O)c1ccc(NC(=O)Nc2nc3ccc(Cl)cc3s2)cc1 [Compound K705]
[1]
  IC50: > 10 µM
  CK1δ inhibition (value in parentheses): 45%

## COC(=O)c1ccc(NC(=O)Nc2nc3ccc(F)cc3s2)cc1 [Compound K706]
[1]
  IC50: > 10 µM
  CK1δ inhibition (value in parentheses): 48%

## COC(=O)c1ccc(NC(=O)Nc2nc3ccc(Cl)cc3s2)cc1 [Compound K707]
[1]
  IC50: 8.73 ± 0.71 µM

## CC(=O)Nc1ccc(NC(=O)Nc2nc3ccc(F)cc3s2)cc1 [Compound K708]
[1]
  IC50: > 10 µM
  CK1δ inhibition (value in parentheses): 39%

## CC(=O)Nc1ccc(NC(=O)Nc2nc3ccc(Cl)cc3s2)cc1 [Compound K709]
[1]
  IC50: 1.32 ± 0.15 µM

## COC(=O)c1cc(NC(=O)Nc2nc3ccc(F)cc3s2)ccc1O [Compound K710]
[1]
  IC50: > 10 µM
  CK1δ inhibition (value in parentheses): 24%

## COC(=O)c1cc(NC(=O)Nc2nc3ccc(Cl)cc3s2)ccc1O [Compound K711]
[1]
  IC50: 9.98 ± 0.96 µM

## COc1cc(OC)c(C=C2C(O)=Nc3ccccc32)c(OC)c1 [IC261]
CK1δ
  IC50: 1 µM
CK1ε
  IC50: 1 µM

## CN(C)CCCN1c2ccccc2Sc2ccccc21 [promazine, reference compound]
PAMPA-BBB assay; pig, pH 7.4
  Papp at 2.5 h: 8.1 ± 0.1 ×10⁻⁶ cm/s
